Read-outs that look alike come from different tables or passages of the source.
Legend:
HepG2 cell line [1] = experiment: In vitro cytotoxic activity, Sulfo-Rhodamine-B (SRB) assay; format: cell-based, human; conditions: read-out: IC50 (μM) on HepG2 Cell Line
VEGFR-2 = VEGFR-2 (Homo sapiens, UniProt P35968); experiment: Biochemical kinase assay (Kinase-Glo Plus luminescence)
HepG2 cell line [2] = test system: HepG2 cell line; set-up: method as in PMID 28505536; conditions: earlier 2-furylbenzimidazole, comparison value; cited from earlier work
[3] = Homo sapiens, HepG2, 48 h, SRB assay, 48 h, mean of three independent experiments
[4] = SRB assay, 48 h, mean of three independent experiments

Chain of VEGFR-2 (P35968 20-1356): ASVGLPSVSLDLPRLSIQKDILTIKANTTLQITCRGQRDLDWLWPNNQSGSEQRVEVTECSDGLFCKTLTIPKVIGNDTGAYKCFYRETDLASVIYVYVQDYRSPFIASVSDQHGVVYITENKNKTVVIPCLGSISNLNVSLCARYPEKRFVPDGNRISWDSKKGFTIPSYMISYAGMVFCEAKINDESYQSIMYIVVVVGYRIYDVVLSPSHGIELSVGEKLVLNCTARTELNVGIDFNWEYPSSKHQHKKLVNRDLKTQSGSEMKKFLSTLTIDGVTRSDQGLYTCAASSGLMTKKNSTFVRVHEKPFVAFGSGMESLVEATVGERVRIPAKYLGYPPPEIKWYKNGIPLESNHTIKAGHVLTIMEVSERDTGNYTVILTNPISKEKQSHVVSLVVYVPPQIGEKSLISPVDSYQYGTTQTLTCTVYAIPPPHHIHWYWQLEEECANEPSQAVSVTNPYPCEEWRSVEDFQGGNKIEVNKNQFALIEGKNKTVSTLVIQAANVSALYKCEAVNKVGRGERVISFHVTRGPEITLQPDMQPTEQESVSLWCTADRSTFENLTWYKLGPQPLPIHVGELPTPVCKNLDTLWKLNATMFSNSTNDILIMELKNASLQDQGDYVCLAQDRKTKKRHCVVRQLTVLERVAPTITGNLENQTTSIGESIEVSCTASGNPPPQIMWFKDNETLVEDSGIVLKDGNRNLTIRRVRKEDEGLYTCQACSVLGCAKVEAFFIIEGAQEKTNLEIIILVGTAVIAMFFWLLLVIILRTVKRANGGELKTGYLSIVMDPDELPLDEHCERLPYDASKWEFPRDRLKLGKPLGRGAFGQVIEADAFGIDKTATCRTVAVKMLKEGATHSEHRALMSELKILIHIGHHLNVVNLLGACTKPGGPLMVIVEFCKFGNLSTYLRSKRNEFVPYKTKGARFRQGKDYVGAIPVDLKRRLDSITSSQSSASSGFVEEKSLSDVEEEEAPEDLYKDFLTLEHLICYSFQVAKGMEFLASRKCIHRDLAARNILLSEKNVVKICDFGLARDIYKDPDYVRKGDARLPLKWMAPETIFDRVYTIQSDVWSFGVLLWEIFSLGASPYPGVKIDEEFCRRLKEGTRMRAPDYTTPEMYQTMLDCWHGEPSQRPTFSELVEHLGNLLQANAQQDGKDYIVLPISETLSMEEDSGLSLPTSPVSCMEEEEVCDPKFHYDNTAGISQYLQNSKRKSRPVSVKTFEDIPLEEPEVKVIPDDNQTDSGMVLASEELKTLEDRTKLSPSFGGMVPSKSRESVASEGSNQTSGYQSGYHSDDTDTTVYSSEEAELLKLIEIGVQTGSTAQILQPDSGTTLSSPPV

melting point [°C]	Compound	IC50 (HepG2 cell line [1]; [3]) [µM]	also measured
233 to 235	CC(C)c1nc2ccccc2[nH]1 [Compound 4a, 2-Isopropyl-1H-benzo[d]imidazole]	> 200	–
–	Cc1ccc(-c2nc3ccccc3[nH]2)o1 [Compound 4b, 2-(5-Methylfuran-2-yl)-1H-benzo[d]imidazole]	103	–
209 to 211	CC(C)c1nc2ccccc2n1CC(=O)c1ccc(C#N)cc1 [Compound 6, 4-(2-(2-Isopropyl-1H-benzo[d]imidazol-1-yl)acetyl)benzonitrile]	13.5	–
93 to 95	COC(=O)Cn1c(C(C)C)nc2ccccc21 [Compound 8a, Methyl 2-(2-isopropyl-1H-benzo[d]imidazol-1-yl)acetate]	> 200	–
–	COC(=O)Cn1c(-c2ccc(C)o2)nc2ccccc21 [Compound 8b, Methyl 2-(2-(5-methylfuran-2-yl)-1H-benzo[d]imidazol-1-yl)acetate]	> 150	–
103 to 105	CCOC(=O)Cn1c(C(C)C)nc2ccccc21 [Compound 8c, Ethyl 2-(2-isopropyl-1H-benzo[d]imidazol-1-yl)acetate]	> 200	–
–	CCOC(=O)Cn1c(-c2ccc(C)o2)nc2ccccc21 [Compound 8d]	> 150	–
238 to 240	CC(C)c1nc2ccccc2n1CC(=O)O [Compound 9a, 2-(2-Isopropyl-1H-benzo[d]imidazol-1-yl)acetic acid]	32.5	–
243 to 245	CC(C)c1nc2ccccc2n1CC(=O)NN [Compound 10a, 2-(2-Isopropyl-1H-benzo[d]imidazol-1-yl)acetohydrazide]	301	–
211 to 213	CC(C)c1nc2ccccc2n1CC(=O)N/N=C/c1ccccc1Cl [Compound 13a, (E)-N′-(2-Chlorobenzylidene)-2-(2-isopropyl-1H-benzo[d]imidazol-1-yl)acetohydrazide]	158	–
249 to 251	CC(C)c1nc2ccccc2n1CC(=O)N/N=C/c1cccc(O)c1 [Compound 13b, (E)-N′-(3-Hydroxybenzylidene)-2-(2-isopropyl-1H-benzo[d]imidazol-1-yl)acetohydrazide]	137	–
296 to 298	CC(C)c1nc2ccccc2n1CC(=O)N/N=C/c1ccc(O)cc1 [Compound 13c, (E)-N′-(4-Hydroxybenzylidene)-2-(2-isopropyl-1H-benzo[d]imidazol-1-yl)acetohydrazide]	140	–
190 to 192	COc1ccc(/C=N/NC(=O)Cn2c(C(C)C)nc3ccccc32)cc1 [Compound 13d, (E)-2-(2-Isopropyl-1H-benzo[d]imidazol-1-yl)-N′-(4-methoxybenzylidene)acetohydrazide]	11.9	IC50 (VEGFR-2): 0.09 ± 0.002 µM
225 to 227	CC(C)c1nc2ccccc2n1CC(=O)N/N=C/c1ccc(N(C)C)cc1 [Compound 13e, (E)-N′-(4-(Dimethylamino)benzylidene)-2-(2-isopropyl-1H-benzo[d]imidazol-1-yl)acetohydrazide]	87	–
202 to 204	COc1ccc(OC)c(/C=N/NC(=O)Cn2c(C(C)C)nc3ccccc32)c1 [Compound 13f]	11.9 to 15.6	IC50 (VEGFR-2): 0.4 ± 0.01 µM; IC50 (HepG2 cell line [1]; [4]): 16.7 µM
165 to 167	COc1cc(/C=N/NC(=O)Cn2c(C(C)C)nc3ccccc32)ccc1O [Compound 13g, (E)-N′-(4-Hydroxy-3-methoxybenzylidene)-2-(2-isopropyl-1H-benzo[d]imidazol-1-yl)acetohydrazide]	13.9	–

melting point [°C]	Compound	IC50 (HepG2 cell line [1]; [3]) [µM]	also measured
–	Cc1ccc(/C=N/NC(=O)Cn2c(C(C)C)nc3ccccc32)o1 [Compound 13h, (E)-2-(2-Isopropyl-1H-benzo[d]imidazol-1-yl)-N′-((5-methylfuran-2-yl)methylene)acetohydrazide]	59.9	–
238 to 240	C/C(=N\NC(=O)Cn1c(C(C)C)nc2ccccc21)c1ccccc1C [Compound 14b, (E)-2-(2-Isopropyl-1H-benzo[d]imidazol-1-yl)-N′-(1-(o-tolyl)ethylidene)acetohydrazide]	26.2	–
215 to 217	C/C(=N\NC(=O)Cn1c(C(C)C)nc2ccccc21)c1ccc(Br)cc1 [Compound 14c, (E)-N′-(1-(4-Bromophenyl)ethylidene)-2-(2-isopropyl-1H-benzo[d]imidazol-1-yl)acetohydrazide]	112	–
231 to 233	C/C(=N\NC(=O)Cn1c(C(C)C)nc2ccccc21)c1ccc(Br)c([N+](=O)[O-])c1 [Compound 14d, (E)-N′-(1-(4-Bromo-3-nitrophenyl)ethylidene)-2-(2-isopropyl-1H-benzo[d]imidazol-1-yl)acetohydrazide]	62	–
175 to 177	COC(=O)COc1ccc(/C=N/NC(=O)Cn2c(C(C)C)nc3ccccc32)cc1OC [Compound 19a, Methyl-(E)-2-(4-((2-(2-(2-isopropyl-1H-benzo[d]imidazol-1-yl)acetyl)hydrazono)methyl)-2-methoxyphenoxy)acetate]	109	–
150 to 152	COC(=O)COc1ccc(/C=N/NC(=O)Cn2c(-c3ccc(C)o3)nc3ccccc32)cc1OC [Compound 19b, Methyl-(E)-2-(2-methoxy-4-((2-(2-(2-(5-methylfuran-2-yl)-1H-benzo[d]imidazol-1-yl)acetyl)hydrazono)methyl)phenoxy)acetate]	71.7	–
93 to 95	CCOC(=O)COc1ccc(/C=N/NC(=O)Cn2c(C(C)C)nc3ccccc32)cc1OC [Compound 19c, Ethyl-(E)-2-(4-((2-(2-(2-isopropyl-1H-benzo[d]imidazol-1-yl)acetyl)hydrazono)methyl)-2-methoxyphenoxy)acetate]	133	–
136 to 138	CCOC(=O)COc1ccc(/C=N/NC(=O)Cn2c(-c3ccc(C)o3)nc3ccccc32)cc1OC [Compound 19d, Ethyl-(E)-2-(2-methoxy-4-((2-(2-(2-(5-methylfuran-2-yl)-1H-benzo[d]imidazol-1-yl)acetyl)hydrazono)methyl)phenoxy)acetate]	114	–
218 to 220	COc1cc(C=O)ccc1OCCOc1ccc(/C=N/NC(=O)Cn2c(C(C)C)nc3ccccc32)cc1OC [Compound 22a, (E)-N′-(4-(2-(4-Formyl-2-methoxyphenoxy)ethoxy)-3-methoxybenzylidene)-2-(2-isopropyl-1H-benzo[d]imidazol-1-yl)acetohydrazide]	> 100	IC50 (HepG2 cell line [1]; [4]): 123 µM
203 to 205	COc1cc(C=O)ccc1OCCOc1ccc(/C=N/NC(=O)Cn2c(-c3ccc(C)o3)nc3ccccc32)cc1OC [Compound 22b, (E)-N′-(4-(2-(4-Formyl-2-methoxyphenoxy)ethoxy)-3-methoxybenzylidene)-2-(2-(5-methylfuran-2-yl)-1H-benzo[d]imidazol-1-yl)acetohydrazide]	> 100	IC50 (HepG2 cell line [1]; [4]): 107 µM
–	Cc1ccc(S(=O)(=O)NC(=O)NNC(=O)Cn2c(C(C)C)nc3ccccc32)cc1 [Compound 24a, 2-(2-(2-Isopropyl-1H-benzo[d]imidazol-1-yl)acetyl)-N-tosylhydrazine-1-carboxamide]	80.7	–
232 to 234	COc1ccc(NC(=S)NNC(=O)Cn2c(C(C)C)nc3ccccc32)cc1 [Compound 24b, 2-(2-(2-Isopropyl-1H-benzo[d]imidazol-1-yl)acetyl)-N-(4-methoxyphenyl)hydrazine-1-carbothioamide]	15.9	–
189 to 191	COc1ccc(NC(=S)NNC(=O)Cn2c(-c3ccc(C)o3)nc3ccccc32)cc1 [Compound 24c, N-(4-Methoxyphenyl)-2-(2-(2-(5-methylfuran-2-yl)-1H-benzo[d]imidazol-1-yl)acetyl)hydrazine-1-carbothioamide]	8.73	–
–	Cc1ccc(-c2nc3ccccc3n2CC(=O)N/N=C/c2ccccc2Cl)o1 [IX]	–	IC50 (HepG2 cell line [2]): 22.6 µM
–	CNC(=O)c1cc(Oc2ccc(NC(=O)Nc3ccc(Cl)c(C(F)(F)F)c3)cc2)ccn1 [Sorafenib (I), sorafenib, reference compound]	–	IC50 (HepG2 cell line [1]; Homo sapiens, HepG2, 48 h): 11 µM
